What is called EC50 is the midpoint of the concentration-response curve. Lower therefore signals higher potency in that assay. One may read the Emax as the maximal effect, on the per cent scale that the assay sets.

Holding throughout (format): cell-based
The target of experiment [1] is T1, GPR40 (Homo sapiens, UniProt O14842).
T1 construct: gene FFAR1; plasmid of untold source and species, transiently cotransfected with SRE-Luc or CRE-Luc in CHO-K1 cells
Kind of experiment: SRE-luciferase (Gq) reporter assay, CHO cells. For orientation: A reporter such as luciferase makes a cellular process visible.

Experiment [2] addresses T1, GPR40. Kind of experiment: SRE-luciferase (Gq) reporter assay, CHO cells, dose-response curve. Conditions: agonist.
Experiment [3] addresses T1, GPR40. Kind of experiment: SRE-luciferase (Gq) reporter assay, CHO cells. Conditions: 24 h, 37 °C.

T1 sequence (O14842 whole entry): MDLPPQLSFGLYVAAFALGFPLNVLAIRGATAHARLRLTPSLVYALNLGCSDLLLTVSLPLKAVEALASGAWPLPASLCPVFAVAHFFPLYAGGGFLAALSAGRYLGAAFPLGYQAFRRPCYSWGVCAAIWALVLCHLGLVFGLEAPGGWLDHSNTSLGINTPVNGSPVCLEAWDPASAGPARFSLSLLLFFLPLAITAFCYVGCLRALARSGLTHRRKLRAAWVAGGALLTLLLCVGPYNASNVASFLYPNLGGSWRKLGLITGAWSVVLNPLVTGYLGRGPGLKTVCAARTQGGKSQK

In experiment [1], `CC(/C=C/C=C(\C)C(=O)O)=C\C=C\C=C(C)\C=C\C=C(/C)C(=O)O` [crocetin] came in with an EC50 of 2.91 ± 0.32 µM.

In the case of `CCCCC/C=C\C/C=C\CCCCCCCC(=O)O` [linoleic acid], the “SRE-luciferase (Gq) reporter assay, CHO cells, dose-response curve” value in experiment [2] is given as “increasing crocetin concentrations on dose−response curves of LA”. As for `CC(/C=C/C=C(\C)C(=O)O[C@@H]1O[C@H](CO[C@@H]2O[C@H](CO)[C@@H](O)[C@H](O)[C@H]2O)[C@@H](O)[C@H](O)[C@H]1O)=C\C=C\C=C(C)\C=C\C=C(/C)C(=O)O[C@@H]1O[C@H](CO[C@@H]2O[C@H](CO)[C@@H](O)[C@H](O)[C@H]2O)[C@@H](O)[C@H](O)[C@H]1O` [crocin], the Emax in experiment [3] stood at 6.00%.
